One assay concerns MC38 cells. Briefly: MTT cell viability assay. In kind it is cell-based, mouse. Conditions: graded dose; reduced serum media; 48 hours of stimulation. Here is the method: FIG. 6 depicts that 5-HTR2B signalling in colon cancer affects cell proliferation and viability: Colon cancer MC38 cells were treated with serotonin (100 μM), 5-HTR2B agonist (BW-723C86; 50 μM), or 5-HTR2B antagonist (SB-215505; 50 μM) for 48 hours, and cell cycle analysis was performed by propidium iodide staining using flow cytometry. MC38 cells were also treated with a graded dose of 5-HTR2B agonist (BW-723C86) or serotonin. MTT assay was performed to measure cell viability. (A) After treatment with 5-HTR2B agonist BW-723C86, serotonin, or 5-HTR2B antagonist SB-215505, the relative cell cycle analysis is shown. (B) Relative cell viability data of MC38 cells following treatment of graded doses of 5-HTR2B agonist BW-723C86 or serotonin are shown. The data shown are representative of one of the three independent experiments. (C) MC38 tumor sections from the control tumor and 5-HTR2B antagonist treated tumor were stained for CD31 and the number of CD31^+ micro-blood vessels/mm^2 of tissue sections was counted and plotted to observe angiogenesis. Error bar represents ±standard error of the mean (SEM).
MC38 cells were cultured at a density of 0.5×10^4 cells/well in 96 well plates (flat bottom) and were allowed to adhere for 24 hours. […] Then, MTT crystals were dissolved with DMSO, and the reading was taken at 590 nm in an ELISA reader (Thermofisher). […]
Background: Formazan colour is commonly taken as a measure of viable cells.

The subject of assay [1] is OVA-specific CD8 and CD4 T cells in MC38-cOVA tumor. Briefly: OVA-specific T cell response in MC38-cOVA tumor-bearing mice (CFSE, tetramer flow cytometry). In kind it is in vivo. On the procedure: FIG. 11 depicts the effect of 5-HTR antagonists on the antigen-specific CTL response MC38 tumor model in mice: (A) Representative experimental plan of the adoptive transfer experiment where NRG mice. In brief, NRG mice were inoculated with MC38 on one flank and B16F10 cells on the other. These mice received total lymph node cells from naïve C57BL/6J mice or MC38 tumor-bearing control or RS-127445 treated mice. (B) Tumor volume data from the above-described experiment was measured and plotted (C) Immunocytochemistry data showing expression of H2-Kb-[…]^+ (red) on MC38 cells transfected with pCL-neo-OVA plasmid on the right side and MC38 cells without transfection. DAPI is used as a counterstain. (D-E) C7BL/6J mice were inoculated with an MC38-ova cell line and treated with RS-127445 or left untreated. After 10 days of such treatment, Total lymph node cells were harvested tagged with CFSE, and cultured in the presence of ovalbumin protein (50 μg/ml) for 5 days. After 5 days cells were checked for CFSE expression by flow cytometry to check proliferation. Here is the data (D) showing the CFSE in CD8^+ cells. The statistical data of the total percentage of CFSE^− CD8 T cells corresponding with the percentage of proliferated CD8 T cells were plotted. (F-G) Flow cytometric data and statistical analysis of the percentage of intra-tumoral H-2Kb^− […] tetramer^+ CD8 population from the control and RS-127445 treated MC38-ova tumor-bearing mice. (H-I) Flow cytometric data and statistical analysis of the percentage of intra-tumoral H-2Kb^− […] tetramer^+CD69^+ activated CD8 population from the control and RS-127445 treated MC38 tumor-bearing mice. (J-K) Flow cytometric data and statistical analysis of the percentage of intra-tumoral H-2K^b-[…] tetramer^+IFN-γ^+Granzyme B^+CD8 T cell population from the control and RS-127445 treated MC38 tumor-bearing mice. (D-E) Histogram overlay and statistical data comparison showing relative MFI of granzyme B on IFN-γ^+ OT-I-tetramer^+ CD8a^+ T cells from MC38-ova tumor of control and RS-127445 treated mice. The data shown are representative of one of the two independent experiments. All the statistical analysis was performed using either Student's t-test or two-way ANOVA using Sidak's multiple comparison test. *P<0.05; **P<0.01; […]; ****P<0.0001 Error bar represents mean±standard error of means (SEM).
FIG. 12 depicts that 5-HTR2B signalling affects the antigen-specific proliferation of CD4 T cells: (A-B) Total CD4 T cells were harvested from the lymph node of OT-II mice and they were tagged with CFSE and cultured in vitro in the presence or absence of OT-II peptide (Ova323-339), IL-2, 5-HTR2B agonist BW-723C86 (10 μM), Serotonin (20 μM) or 5-HTR2B antagonist RS-127445 (15 μM) for 5 days. After 5 days the proliferation of OT-II tetramer^+ CD4 T cells was measured and plotted as histogram overlay (A) or as statistical data (B). (C-D) Flow cytometric data and statistical analysis of the percentage of intra-tumoral OT-II-tetramer^+ IFNγ^+ CD4 T cell population from the control and RS-127445 treated MC38-ova tumor-bearing mice. (E-F) Flow cytometric data and statistical analysis of the percentage of intra-tumoral OT-II-tetramer^+ IFNγ^+ CD4 T cell population from the control and RS-127445 treated MC38-ova tumor-bearing mice. (G) Histogram overlay and statistical data comparison showing relative MFI of IL-10 on OT-II-tetramer^+ CD4^+ T cells from MC38-ova tumor of control and RS-127445 treated mice. All the statistical analysis was performed using either Student's ‘t’ test or two-way ANOVA using Sidak's multiple comparison test. *P<0.05; **P<0.01; […]; ****P<0.0001 Error bar represents mean±standard error of means (SEM).
A simple adoptive transfer experiment was performed to study the enhancement of CTL response in general or antigen-specific. […]
(In general: In flow cytometry, cells or beads pass a laser one at a time.)

The results in this text go back to patent US20240408071A1, “NOVEL COMBINATION OF SEROTONIN RECEPTOR (5-HTR2B) ANTAGONIST AND AN IMMUNOMODULATOR AND CHEMOTHERAPEUTIC DRUGS FOR INHIBITION OF CANCER” (NATIONAL CENTRE FOR CELL SCIENCE, priority 2021, published 2024).

Molecules are shown by their SMILES.

Turning to `CC(N)Cc1c[nH]c2ccc(OCc3cccs3)cc12` (stereo not shown) [BW-723C86], the “viability of MC38 cells” value with MC38 cells is reported as “enhanced the viability of MC38 cells”.

As for `CC(C)c1cc(-c2ccc(F)c3ccccc23)nc(N)n1` [RS-127445], the “Ova-specific IFNγ+ CD4 T cells in the tumor” value in assay [1] (MC38-cOVA tumor, OT-II tetramer (FIG. 12C-D)) is reported as “increased”. Moreover, the “Ova-specific IL-10+ CD4 T cells in the tumor” value in assay [1] (MC38-cOVA tumor, OT-II tetramer (FIG. 12E-G)) is recorded as “reduced”. Also, in assay [1] (OT-I tetramer (FIG. 11H-I)), the “CD69+ activated OVA-specific CTLs percentage in the tumor” value was “enhanced”. The “IFNγ+ granzyme B+ effector OVA-specific CTLs percentage in the tumor” value in assay [1] (OT-I tetramer (FIG. 11J-M)) is given as “enhanced”. Moreover, the “overall percentage of OVA-specific CD8 T cell in the tumor” value in assay [1] (OT-I tetramer, MC38-ova tumor (FIG. 11F-G)) is recorded as “did not enhance the overall percentage”. Also, the “proliferation of CD8 T cells in the presence of OVA in vitro” value in assay [1] (cells from treated MC38-cOVA tumor-bearing mice, ovalbumin 50 μg/ml, 5 days, CFSE (FIG. 11D-E)) is “proliferated at a better rate”.
